Results: ChEMBL document CHEMBL4699482, “Synthesis and SAR of a series of mGlu NAMs based on an ethyl-8-methoxy-4-(4-phenylpiperazin-1-yl)quinoline carboxylate core” (Bioorg Med Chem Lett, 2020)

Assays:
[1] = biological target: Metabotropic glutamate receptor 7 (Rattus norvegicus) (UniProt P35400); experiment: (§1) Negative allosteric modulation of rat mGlu7 receptor expressed in HEK cells co-expressing Galpha15 assessed as minimum L-AP4 response by measuring reduction in calcium mobilization incubated for 142 secs prior to glutamate addition and after 120 secs treated with L-AP4 and measured after 40 secs by Fluo-4 AM dye based fluorescence assay relative to L-AP4; format: functional, cell-based; design: scale not given: the % may be the effect or the level left; conditions: time 302.0 sec
[2] = biological target: Metabotropic glutamate receptor 7 (Rattus norvegicus, UniProt P35400); experiment: as §1, with “as” for “as minimum L-AP4 response by measuring”, “assay” for “assay relative to L-AP4”; format: functional, cell-based
[3] = Fraction unbound in rat plasma at 5 uM incubated for 4 hrs by equilibrium dialysis method; format: ADME, cell-free
[4] = Fraction unbound in rat brain homogenate at 5 uM incubated for 6 hrs by equilibrium dialysis method; format: ADME, tissue-based
[5] = Fraction unbound in mouse brain homogenate at 5 uM incubated for 6 hrs by equilibrium dialysis method; format: ADME, tissue-based
[6] = Fraction unbound in mouse plasma at 5 uM incubated for 4 hrs by equilibrium dialysis method; format: ADME, cell-free
[7] = Fraction unbound in human plasma at 5 uM incubated for 4 hrs by equilibrium dialysis method; format: ADME, cell-free
[8] = biological target: Metabotropic glutamate receptor 4 (Homo sapiens, UniProt Q14833); experiment: Negative allosteric modulation of mGlu4 receptor (unknown origin)
[9] = biological target: Metabotropic glutamate receptor 8 (Homo sapiens, UniProt O00222); experiment: Negative allosteric modulation of mGlu8 receptor (unknown origin)
[10] = filed as negative allosteric modulator

Metabotropic glutamate receptor 7, sequence (P35400 whole entry): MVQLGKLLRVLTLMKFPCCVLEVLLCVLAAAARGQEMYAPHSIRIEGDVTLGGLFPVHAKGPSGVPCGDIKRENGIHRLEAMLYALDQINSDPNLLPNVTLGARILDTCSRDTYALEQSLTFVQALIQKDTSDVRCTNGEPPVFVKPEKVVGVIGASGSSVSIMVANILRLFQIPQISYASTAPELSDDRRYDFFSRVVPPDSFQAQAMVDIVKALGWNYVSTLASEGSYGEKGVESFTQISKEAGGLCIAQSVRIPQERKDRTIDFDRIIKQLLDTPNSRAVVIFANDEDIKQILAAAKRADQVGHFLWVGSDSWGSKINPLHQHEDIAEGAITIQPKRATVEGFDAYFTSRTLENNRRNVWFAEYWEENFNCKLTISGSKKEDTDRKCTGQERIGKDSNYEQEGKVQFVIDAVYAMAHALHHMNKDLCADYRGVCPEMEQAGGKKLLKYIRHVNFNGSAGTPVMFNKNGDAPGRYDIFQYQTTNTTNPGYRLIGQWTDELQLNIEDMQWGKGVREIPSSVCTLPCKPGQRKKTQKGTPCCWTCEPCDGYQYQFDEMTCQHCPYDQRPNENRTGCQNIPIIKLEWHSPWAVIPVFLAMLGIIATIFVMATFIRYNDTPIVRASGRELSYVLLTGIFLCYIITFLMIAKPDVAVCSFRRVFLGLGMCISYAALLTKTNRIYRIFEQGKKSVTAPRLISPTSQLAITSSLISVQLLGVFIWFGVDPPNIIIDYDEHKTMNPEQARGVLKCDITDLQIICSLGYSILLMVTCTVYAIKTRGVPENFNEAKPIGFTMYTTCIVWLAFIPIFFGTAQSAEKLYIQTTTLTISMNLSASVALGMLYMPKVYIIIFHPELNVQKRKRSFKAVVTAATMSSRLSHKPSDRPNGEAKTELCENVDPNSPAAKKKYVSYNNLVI
Metabotropic glutamate receptor 7 (Rattus norvegicus), sequence (P35400 whole entry): as above
Metabotropic glutamate receptor 8, sequence (O00222 whole entry): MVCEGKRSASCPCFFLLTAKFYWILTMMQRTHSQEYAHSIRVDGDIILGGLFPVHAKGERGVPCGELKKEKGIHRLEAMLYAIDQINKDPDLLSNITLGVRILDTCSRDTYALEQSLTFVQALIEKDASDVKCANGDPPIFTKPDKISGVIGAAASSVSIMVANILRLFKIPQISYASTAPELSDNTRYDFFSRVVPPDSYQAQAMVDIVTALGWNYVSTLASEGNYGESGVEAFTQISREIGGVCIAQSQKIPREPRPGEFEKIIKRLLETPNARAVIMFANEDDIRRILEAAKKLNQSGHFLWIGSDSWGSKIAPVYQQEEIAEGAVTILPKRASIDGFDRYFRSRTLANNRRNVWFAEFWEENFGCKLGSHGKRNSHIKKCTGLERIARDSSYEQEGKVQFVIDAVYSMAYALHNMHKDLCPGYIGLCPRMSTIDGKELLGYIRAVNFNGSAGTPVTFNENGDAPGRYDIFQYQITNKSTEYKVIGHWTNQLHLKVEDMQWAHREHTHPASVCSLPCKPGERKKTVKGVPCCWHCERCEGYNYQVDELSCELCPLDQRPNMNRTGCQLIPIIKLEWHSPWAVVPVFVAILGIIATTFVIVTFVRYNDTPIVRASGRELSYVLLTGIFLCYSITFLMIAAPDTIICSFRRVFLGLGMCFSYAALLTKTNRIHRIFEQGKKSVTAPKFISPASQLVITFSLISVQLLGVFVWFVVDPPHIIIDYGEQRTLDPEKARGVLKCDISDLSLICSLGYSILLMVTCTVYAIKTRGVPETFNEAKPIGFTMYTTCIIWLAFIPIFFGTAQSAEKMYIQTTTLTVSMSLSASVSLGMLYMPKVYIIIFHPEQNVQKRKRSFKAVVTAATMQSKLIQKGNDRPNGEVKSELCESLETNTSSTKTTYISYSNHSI
Metabotropic glutamate receptor 4, sequence (Q14833 whole entry): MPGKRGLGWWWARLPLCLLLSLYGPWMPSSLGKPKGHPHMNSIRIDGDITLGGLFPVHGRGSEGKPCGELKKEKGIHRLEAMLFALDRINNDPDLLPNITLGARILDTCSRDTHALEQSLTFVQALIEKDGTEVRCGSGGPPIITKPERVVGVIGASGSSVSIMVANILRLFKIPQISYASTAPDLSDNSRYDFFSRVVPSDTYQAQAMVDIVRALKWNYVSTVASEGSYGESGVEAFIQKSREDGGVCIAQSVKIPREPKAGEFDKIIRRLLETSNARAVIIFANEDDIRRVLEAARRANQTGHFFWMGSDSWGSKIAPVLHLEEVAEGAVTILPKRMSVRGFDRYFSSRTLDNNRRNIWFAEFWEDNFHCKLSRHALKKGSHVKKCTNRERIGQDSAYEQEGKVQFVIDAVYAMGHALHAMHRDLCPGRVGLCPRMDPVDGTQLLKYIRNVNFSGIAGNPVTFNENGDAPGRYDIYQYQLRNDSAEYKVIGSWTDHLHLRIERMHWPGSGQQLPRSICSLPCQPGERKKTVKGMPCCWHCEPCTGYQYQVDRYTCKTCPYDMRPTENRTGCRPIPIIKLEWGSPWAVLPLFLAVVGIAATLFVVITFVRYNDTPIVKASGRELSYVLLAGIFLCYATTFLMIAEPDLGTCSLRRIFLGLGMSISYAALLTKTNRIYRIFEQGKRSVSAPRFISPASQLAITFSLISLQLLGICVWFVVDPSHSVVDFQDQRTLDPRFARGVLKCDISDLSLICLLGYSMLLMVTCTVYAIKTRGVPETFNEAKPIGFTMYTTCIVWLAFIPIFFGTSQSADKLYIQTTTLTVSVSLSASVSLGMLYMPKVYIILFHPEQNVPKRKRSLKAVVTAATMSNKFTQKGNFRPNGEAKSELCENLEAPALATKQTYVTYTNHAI

SMILES	Activity [1, 10]	IC50 [2]	also measured
CCOC(=O)c1cnc2c(OC)cccc2c1N1CCN(c2ccccc2SC)CC1	4.7%	510 nM	–
CCOC(=O)c1cnc2c(OC)cccc2c1N1CCN(c2ccccc2OC)CC1C (racemic)	6.1%	1500 nM	–
CCOC(=O)c1cnc2c(OC)cccc2c1-c1cnc(-c2ccccc2OC)nc1	12%	2400 nM	–
CCOC(=O)c1cnc2c(OC)cccc2c1C1CCN(c2ccccc2OC)CC1	41%	> 10000 nM	–
CCOC(=O)c1cnc2c(OC)cccc2c1C1=CCN(c2ccccc2OC)CC1	9.6%	3600 nM	–
CCOC(=O)c1cnc2c(OC)cccc2c1N1CC2(CN(c3ccccc3OC)C2)C1	–	> 30000 nM	–
CCOC(=O)c1ccc2c(OC)cccc2c1N1CCN(c2ccccc2OC)CC1	–	> 30000 nM	–
CCOC(=O)c1cnc2c(OC)cccc2c1N1CCN(c2cc(F)ccc2OC)CC1	15%	2100 nM	–
CCOC(=O)c1cnc2c(OC)cccc2c1C1CC2CC(C1)N2c1ccccc1OC (stereo unspecified)	41%	> 10000 nM	–
CCOC(=O)c1cnc2c(OC)cccc2c1C1C2CC1CN(c1ccccc1OC)C2 (stereo unspecified)	–	> 30000 nM	–
CCOC(=O)c1cnc2c(OC)cccc2c1N1CCN(c2cccnc2OC)CC1	10%	1500 nM	–
CCOC(=O)c1cnc2c(OC)cccc2c1N1CCN(c2ccc(OC)cc2OC)CC1	9%	1900 nM	–
CCOC(=O)c1cnc2c(OC)cccc2c1N1CCN(c2ccccc2OCC)CC1	8.7%	5100 nM	–
CCOC(=O)c1cnc2c(OC)cccc2c1N1CCN(c2c(OC)cccc2OC)CC1	11%	800 nM	–
CCOC(=O)c1cnc2c(OC)cccc2c1N1CCN(c2ccccc2OC)C(C)C1 (racemic)	8.6%	1300 nM	–
CCOC(=O)c1cnc2c(OC)cccc2c1-c1ccn(Cc2ccccc2OC)c1	6.5%	1200 nM	–
CCOC(=O)c1cnc2c(OC)cccc2c1-c1cnc(-c2ccccc2OC)cn1	5.1%	540 nM	–
CCOC(=O)c1cnc2c(OC)cccc2c1N1CCN(c2ccccc2F)CC1	12%	6100 nM	–
CCOC(=O)c1cnc2c(OC)cccc2c1N1CCN(c2nccnc2OC)CC1	11%	3000 nM	–
CCOC(=O)c1cnc2c(OC)cccc2c1-c1ccc(-c2ccccc2OC)cn1	6.8%	2800 nM	–
CCOC(=O)c1cnc2c(OC)cccc2c1N1CCN(c2ccccc2OC(F)(F)F)CC1	–	> 30000 nM	–
CCOC(=O)c1cnc2c(OC)cccc2c1-c1cnc(-c2ccccc2OC)c(OC)c1	3.6%	350 nM	Fu [3]: 0.01; Fu [4]: 0.04; Fu [5]: 0.04; Fu [6]: 0.01
CCOC(=O)c1cnc2c(OC)cccc2c1-c1ccc(-c2ccccc2OC(C)C)nc1	5.8%	1500 nM	–

SMILES	Activity [1, 10]	IC50 [2]	also measured
CCOC(=O)c1cnc2c(OC)cccc2c1N1CCN(c2cncs2)CC1	–	> 30000 nM	–
CCOC(=O)c1cnc2c(OC)cc(OC)cc2c1-c1ccc(-c2ccccc2OC)nc1	3.5%	880 nM	–
CCOC(=O)c1cnc2c(OC)cccc2c1N1CCN(c2ccccc2Cl)CC1	–	> 30000 nM	–
CCOC(=O)c1cnc2c(OC)cccc2c1N1CC2CN(c3ccccc3OC)CC2C1 (stereo unspecified)	–	> 10000 nM	Activity [1]: 57%
CCOC(=O)c1cnccc1N1CCN(c2ccccc2OC)CC1	13%	4200 nM	–
CCOC(=O)c1cnc2c(OC)cccc2c1-c1ccc(-c2ccccc2OC)cc1	4.2%	2900 nM	Fu [3]: < 0.001; Fu [7]: < 0.001
CCOC(=O)c1cnc2c(OC)cccc2c1-c1ccc(-c2ccccc2SC)nc1	5.6%	410 nM	–
CCOC(=O)c1cnc2c(OC)cccc2c1N1CCN(c2ccccc2OC(C)C)CC1	6.5%	2300 nM	–
CCOC(=O)c1cnc2c(OC)cccc2c1N1CCN(c2ccccc2C#N)CC1	14%	4200 nM	–
CCOC(=O)c1cnc2c(OC)cccc2c1N1CCN(c2ccccc2C)CC1	41%	> 10000 nM	–
CCOC(=O)c1cnc2c(OC)cccc2c1N1CCN(c2ccnn2C)CC1	–	> 30000 nM	–
CCOC(=O)c1cnc2ccccc2c1N1CCN(c2ccccc2OC)CC1	–	> 30000 nM	–
CCOC(=O)c1cnc2sccc2c1N1CCN(c2ccccc2OC)CC1	26%	4500 nM	–
CCOC(=O)c1cnc2c(OC)cccc2c1N1CCN(c2ccccc2OC)CC1	5.6%	647 nM	Fu [3]: 0.016; Fu [7]: 0.018; IC50 [8]: > 30000 nM; IC50 [9]: > 30000 nM
CCOC(=O)c1cnc2c(OC)cccc2c1-c1ccc(-c2ccccc2OCC)nc1	6.3%	370 nM	–
CCOC(=O)c1cnc2c(OC)cc(OC)cc2c1-c1ccc(-c2ccccc2OCC)nc1	5%	810 nM	–
CCOC(=O)c1cnc2c(OC)cc(OC)cc2c1N1CCN(c2ccccc2OC)CC1	3.9%	670 nM	–
CCOC(=O)c1cnc2c(OC)cccc2c1-c1cc(F)c(-c2ccccc2OC)nc1OC	24%	2100 nM	–
CCOC(=O)c1cnc2c(OC)cccc2c1-c1ccc(-c2ccccc2OC)nc1	6.5%	600 nM	–
CCOC(=O)c1cnc2c(OC)cccc2c1N1CCN(c2cccs2)CC1	–	> 30000 nM	–
CCOC(=O)c1cnc2c(OC)cccc2c1N(C)CCN(C)c1ccccc1OC	9.6%	4400 nM	–
CCOC(=O)c1cnc2ccsc2c1N1CCN(c2ccccc2OC)CC1	24%	4500 nM	–
